Measurements from ChEMBL document CHEMBL3091331, “Aminothiazole-featured pirinixic acid derivatives as dual 5-lipoxygenase and microsomal prostaglandin E2 synthase-1 inhibitors with improved potency and efficiency in vivo” (J Med Chem, 2013).
The source made the active and inactive calls. No cut-off for these calls is given here.

Assays:
[1] = target: T1, Polyunsaturated fatty acid 5-lipoxygenase (Homo sapiens, UniProt P09917); assay: Inhibition of human recombinant 5-lipoxygenase expressed in Escherichia coli BL21 using arachidonic acid as substrate incubated 5 to 10 mins prior to substrate addition measured after 10 mins by HPLC analysis
T1 sequence (P09917 whole entry): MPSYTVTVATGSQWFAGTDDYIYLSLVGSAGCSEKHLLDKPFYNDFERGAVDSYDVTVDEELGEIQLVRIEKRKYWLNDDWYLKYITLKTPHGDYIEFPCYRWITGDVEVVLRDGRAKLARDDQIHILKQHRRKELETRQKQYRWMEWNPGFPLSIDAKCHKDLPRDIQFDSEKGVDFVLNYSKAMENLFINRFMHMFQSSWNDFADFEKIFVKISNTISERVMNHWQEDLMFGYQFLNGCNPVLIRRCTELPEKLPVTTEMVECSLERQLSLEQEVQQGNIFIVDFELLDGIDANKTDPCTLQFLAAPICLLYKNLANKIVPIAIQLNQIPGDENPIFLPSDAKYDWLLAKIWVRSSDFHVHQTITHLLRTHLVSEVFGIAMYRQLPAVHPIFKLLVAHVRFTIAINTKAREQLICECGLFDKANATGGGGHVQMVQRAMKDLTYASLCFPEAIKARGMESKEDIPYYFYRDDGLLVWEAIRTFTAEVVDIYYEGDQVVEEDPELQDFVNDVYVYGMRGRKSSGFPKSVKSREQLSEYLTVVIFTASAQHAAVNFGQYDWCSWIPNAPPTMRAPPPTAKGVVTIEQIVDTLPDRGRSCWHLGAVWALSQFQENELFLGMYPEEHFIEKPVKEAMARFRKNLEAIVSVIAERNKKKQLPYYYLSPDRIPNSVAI

[2] = target: T1, Polyunsaturated fatty acid 5-lipoxygenase; assay: Inhibition of 5-lipoxygenase in A23187-stimulated human polymorphonuclear leukocytes using arachidonic acid as substrate incubated 15 mins prior to substrate addition measured after 10 mins by HPLC analysis
[3] = target: T2, Prostaglandin E synthase (Homo sapiens, UniProt O14684); assay: Inhibition of mPGES-1 from human A549 cell microsomal membranes using PGH2 as substrate incubated 15 mins prior to substrate addition measured after 1 min by RP-HPLC analysis
T2 sequence (O14684 whole entry): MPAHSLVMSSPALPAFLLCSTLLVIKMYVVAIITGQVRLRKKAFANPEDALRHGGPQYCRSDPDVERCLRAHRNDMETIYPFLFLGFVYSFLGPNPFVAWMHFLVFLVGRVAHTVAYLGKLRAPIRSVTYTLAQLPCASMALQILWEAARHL

[4] = test system: Radical scavenging activity; assay: Antioxidant activity assessed as DPPH radical scavenging activity at 25 to 100 uM after 30 mins; format: functional
[5] = target: T3, Polyunsaturated fatty acid 5-lipoxygenase (Homo sapiens) (UniProt P09917); assay: Ratio of IC50 for human recombinant 5-lipoxygenase expressed in Escherichia coli BL21 to IC50 for 5-lipoxygenase in human PMNL cells
T3 sequence (whole entry): T1 sequence (P09917 whole entry)

[6] = Metabolic stability in Sprague-Dawley rat liver microsomes assessed as compound remaining at 10 uM after 60 mins by HPLC analysis; format: ADME; conditions: read-out: Stability
[7] = target: T1, Polyunsaturated fatty acid 5-lipoxygenase; assay: Inhibition of 5-lipoxygenase in human polymorphonuclear leukocytes; format: cell-based
[8] = target: T4, Prostaglandin E synthase (Homo sapiens) (UniProt O14684); assay: Inhibition of mPGES-1 (unknown origin) assessed as remaining activity at 10 uM; values are per cent of control
T4 sequence (whole entry): T2 sequence (O14684 whole entry)

[9] = target: T2, Prostaglandin E synthase; assay: Inhibition of mPGES-1 (unknown origin)
[10] = species on record: Homo sapiens; assay: Translocation of 5-lipoxygenase from cytosol into nuclear membrane in A23187-stimulated human polymorphonuclear leukocytes assessed as enzyme product formation at 10 uM incubated for 15 mins prior to A23187-challenge measured after 5 mins by Western blotting analysis; format: functional
[11] = test system: Mus musculus; assay: Reduction of LTC4 formation in CD-1 mouse peritonitis model at 1 mg/kg, ip administered 30 mins prior to zymosan-challenge measured after 30 mins by EIA relative to vehicle-treated control; format: functional; conditions: CD-1, ip, route intraperitoneal
[12] = test system: Mus musculus; assay: Antiinflammatory activity in CD-1 mouse peritonitis model assessed as reduction in myeloperoxidase activity at 1 mg/kg, ip administered 30 mins prior to zymosan-challenge measured after 4 hrs by spectrophotometry relative to vehicle-treated control; format: functional; conditions: CD-1, ip, route intraperitoneal
[13] = target: T3, Polyunsaturated fatty acid 5-lipoxygenase (Homo sapiens); assay: Inhibition of human recombinant 5-lipoxygenase expressed in Escherichia coli BL21 using arachidonic acid as substrate at 1 uM incubated 5 to 10 mins prior to substrate addition measured after 10 mins by HPLC analysis
[14] = test system: Mus musculus; assay: Reduction of PGE2 biosynthesis in CD-1 mouse peritonitis model at 1 mg/kg, ip administered 30 mins prior to zymosan-challenge measured after 4 hrs by RIA (reference value: 1.46 +/- 0.08 ng/ml); format: functional, organism-based; design: dose 1 mg/kg
[15] = test system: Mus musculus; assay: Antiinflammatory activity in CD-1 mouse peritonitis model assessed as reduction in neutrophil infiltration at 1 mg/kg, ip administered 30 mins prior to zymosan-challenge measured after 4 hrs by spectrophotometry relative to vehicle-treated control; format: functional; conditions: CD-1, ip, route intraperitoneal
[16] = test system: Mus musculus; assay: Antiinflammatory activity in CD-1 mouse peritonitis model assessed as reduction in vascular permeability at 1 mg/kg, ip administered 30 mins prior to zymosan-challenge measured after 4 hrs relative to vehicle-treated control; format: functional; conditions: CD-1, ip, route intraperitoneal

Row | Compound | IC50 [1] | IC50 [2] | IC50 [3] | other results
1 | CCC(Sc1nc(Cl)cc(Nc2nc(-c3ccc(Cl)cc3)cs2)n1)C(=O)O (stereo not given) | 6600 nM | 3600 nM | 1400 nM | 
2 | CCCCCCC(Sc1nc(Cl)cc(Nc2nc(-c3ccc(Br)cc3)cs2)n1)C(=O)O (stereo not given) | 700 nM | 300 nM | 800 nM | 
3 | O=C1O[C@H]([C@@H](O)CO)C(O)=C1O |  |  |  | Activity [4]: Active
4 | CCCCCCC(Sc1nc(Cl)cc(Nc2nc(-c3ccc(C)cc3)cs2)n1)C(=O)O (stereo not given) | 3000 nM | 200 nM | 700 nM | Ratio IC50 [5]: 8
5 | CCCCCCC(Sc1nc(Cl)cc(Nc2nc(-c3cccc4ccccc34)cs2)n1)C(=O)O (stereo not given) | 700 nM | 400 nM | 1700 nM | 
6 | CCCCCCC(Sc1nc(Cl)cc(Nc2nc(-c3ccc(F)cc3F)cs2)n1)C(=O)O (stereo not given) | 2500 nM | 1500 nM | 1800 nM | 
7 | CCCCCCC(Sc1nc(Cl)cc(Nc2nc(-c3ccc4c(c3)CCCC4)cs2)n1)C(=O)O (stereo not given) | 2300 nM | 400 nM | 400 nM | 
8 | O=C(O)CSc1nc(Cl)cc(Nc2nc(-c3ccc(Cl)cc3)cs2)n1 | > 10000 nM | > 10000 nM | 2300 nM | 
9 | CCCCCCC(Sc1nc(Cl)cc(Nc2nc(C34CC5CC(CC(C5)C3)C4)cs2)n1)C(=O)O (stereo not given) | 5000 nM | 3300 nM | 900 nM | 
10 | CCCCCCC(Sc1nc(Cl)cc(Nc2nc(-c3ccc(Cl)c(Cl)c3)cs2)n1)C(=O)O (stereo not given) | 700 nM | 400 nM | 300 nM | 
11 | CCOc1ccc2ccc(=O)oc2c1 [ETHOXYCOUMARIN] |  |  |  | remaining at 1 h, 10 µM [6]: 31%
12 | CCCCCC[C@H](Sc1nc(Cl)cc(Nc2nc(-c3ccc4ccccc4c3)cs2)n1)C(=O)O | 300 nM | 900 nM | 600 nM | 
13 | CCCCCCC(Sc1nc(Cl)cc(Nc2nc(-c3ccc(C(F)(F)F)cc3)cs2)n1)C(=O)O (stereo not given) | 1200 nM | 600 nM | 400 nM | 
14 | CCCCCCC(Sc1nc(Cl)cc(Nc2ccc(-c3ccccc3)cc2)n1)C(=O)O (stereo not given) |  |  |  | IC50 [7]: 730 nM
15 | CCCCCCC(Sc1nc(Cl)cc(Nc2ccc3[nH]c(C(F)(F)F)nc3c2)n1)C(=O)O (stereo not given) |  |  |  | residual activity [8]: 43.4%
16 | CCCCCCC(Sc1nc(Cl)cc(Nc2cccc(C)c2C)n1)C(=O)O (stereo not given) |  | 3900 nM |  | 
17 | CCCCCCC(Sc1nc(Cl)cc(Nc2nc(-c3ccccc3)c(C)s2)n1)C(=O)O (stereo not given) | 1900 nM | 600 nM | 700 nM | remaining at 1 h, 10 µM [6]: 74%
18 | CCCCCCC(Sc1nc(Cl)cc(Nc2cccc(-c3ccccc3)c2)n1)C(=O)O (stereo not given) |  |  |  | IC50 [7]: 600 nM; IC50 [9]: 4000 nM

Row | Compound | IC50 [1] | IC50 [2] | IC50 [3] | other results
19 | CCCCCCC(Sc1nc(Cl)cc(Nc2nc(-c3ccc([N+](=O)[O-])cc3)cs2)n1)C(=O)O (stereo not given) | 1800 nM | 1400 nM | 5000 nM | 
20 | CCCCCCC(Sc1nc(Cl)cc(Nc2nc(-c3ccccc3)c(CC)s2)n1)C(=O)O (stereo not given) | 1800 nM | 700 nM | 1700 nM | 
21 | O=C(O)C(Sc1nc(Cl)cc(Nc2nc(-c3ccc(Cl)cc3)cs2)n1)c1cccc2ccccc12 (stereo not given) | 700 nM | 400 nM | 500 nM | 
22 | N[C@@H](CS)C(=O)O |  |  |  | Activity [4]: Active
23 | CCCCCCC(Sc1nc(Cl)cc(Nc2nc(-c3ccccc3)cs2)n1)C(=O)O (stereo not given) | 2000 nM | 600 nM | 800 nM | 
24 | CC(C)=CCC[C@]1(C)[C@@H](CC=C(C)C)C[C@]2(CC=C(C)C)C(=O)C(CC=C(C)C)=C(O)[C@@]1(C(=O)C(C)C)C2=O |  |  |  | Activity [10]: Active
25 | CCCCCCC(Sc1nc(Cl)cc(Nc2nc(-c3ccc(OC)cc3)cs2)n1)C(=O)O (stereo not given) | 1800 nM | 800 nM | 1300 nM | 
26 | CCCCCCC(Sc1nc(Cl)cc(Nc2nc(-c3ccc(F)c(F)c3)cs2)n1)C(=O)O (stereo not given) | 2300 nM | 1500 nM | 1600 nM | 
27 | CCCCC(Sc1nc(Cl)cc(Nc2nc(-c3ccc(Cl)cc3)cs2)n1)C(=O)O (stereo not given) | 3800 nM | 900 nM | 1200 nM | 
28 | CCCCCCC(Sc1nc(Cl)cc(Nc2nc(-c3ccc(-c4ccccc4)cc3)cs2)n1)C(=O)O (stereo not given) | 600 nM | 300 nM | 500 nM | 
29 | CCC(Sc1nc(Cl)cc(Nc2nc(-c3ccc4ccccc4c3)cs2)n1)C(=O)O (stereo not given) | 2000 nM | 2900 nM | 1400 nM | 
30 | CCCCCC[C@@H](Sc1nc(Cl)cc(Nc2nc(-c3ccc4ccccc4c3)cs2)n1)C(=O)O | 400 nM | 400 nM | 600 nM | 
31 | CCCCCCC(Sc1nc(Cl)cc(Nc2nc(-c3ccc(Cl)cc3)cs2)n1)C(=O)O (stereo not given) | 800 nM | 900 nM | 700 nM | 
32 | CCCCCCC(Sc1nc(Cl)cc(Nc2nc(-c3ccc(Br)cc3)c(C)s2)n1)C(=O)O (stereo not given) | 1600 nM | 200 nM | 1300 nM | Ratio IC50 [5]: 8
33 | CCCCCCC(Sc1nc(Cl)cc(Nc2nc(-c3ccc(Cl)cc3Cl)cs2)n1)C(=O)O (stereo not given) | 1100 nM | 800 nM | 400 nM | 
34 | CCCCCCC(Sc1nc(Cl)cc(Nc2nc(-c3ccccc3)c(-c3ccccc3)s2)n1)C(=O)O (stereo not given) | 700 nM | 600 nM | 600 nM | 
35 | CC(C)c1ccc2c(c1)c(SC(C)(C)C)c(CC(C)(C)C(=O)O)n2Cc1ccc(Cl)cc1 |  |  |  | inhibition in vivo at 1 mg/kg [11]: 94%; inhibition in vivo at 1 mg/kg [12]: 18%; inhibition [13]: inactive; inhibition [14]: inactive; inhibition in vivo at 1 mg/kg [15]: 34%; inhibition in vivo at 1 mg/kg [16]: 76%
36 | CCCCCCC(Sc1nc(Cl)cc(Nc2nc3c(s2)CCc2cc(OC)ccc2-3)n1)C(=O)O (stereo not given) | 1900 nM | 200 nM | 1900 nM | Ratio IC50 [5]: 8
